Values after ≈ are worked out from the molar mass of the structure shown. Where two headings read alike, the source gives them in different places.

The subject of one assay is breast cancer carcinoma. The following applies: cited from earlier work.
The next assay concerns MDA-MB-231. The assay can be described thus: Cytotoxicity assay, SRB colorimetric assay. It is filed as cell-based. The following applies: Homo sapiens; for GI50: concentration that produces 50% growth inhibition; for IC (TGI): total growth inhibition (cytostatic effect). From the text:
(§1) The aim of this assay is to evaluate the in vitro cytostatic (ability to delay or arrest tumor cell growth) or cytotoxic (ability to kill tumor cells) activity of the samples being tested.
(§2) Evaluation of Cytotoxic Activity Using the SBR Colorimetric Assay
(§3) A colorimetric type of assay, using sulforhodamine B (SRB) reaction has been adapted for a quantitative measurement of cell growth and viability (following the technique described by Skehan P et al. J. Natl. Cancer Inst. 1990, 82, 1107-1112).
(§4) This form of assay employs SBS-standard 96-well cell culture microplates (Faircloth et al. Methods in Cell Science, 1988, 11(4), 201-205; Mosmann et al, Journal of Immunological. Methods, 1983, 65(1-2), 55-63). All the cell lines used in this study, derived from different types of human cancer, were obtained from the American Type Culture Collection (ATCC).
(§5) Cells were maintained in Dulbecco's Modified Eagle Medium (DMEM) supplemented with 10% Fetal Bovine Serum (FBS), 2 mM L-glutamine, 100 U/mL penicillin and 100 U/mL streptomycin at 37° C., 5% CO2 and 98% humidity. For the experiments, cells were harvested from subconfluent cultures using trypsinization and resuspended in fresh medium before counting and plating.
(§6) Cells were seeded in 96 well microtiter plates at 5×10^3 cells per well in aliquots of 150 μL, and allowed to attach to the plate surface for 18 hours in drug free medium. One control (untreated) plate of each cell line was fixed (as described below) and used for time zero reference value. Afterwards, test samples were added to the cultures in ten serial dilutions, in aliquots of 50 μL, ranging from 10 to 0.00262 μg/mL. After 48 hours exposure, the antitumor effect was estimated by the SRB method: Briefly, cells were washed twice with PBS, fixed for 15 min in 1% glutaraldehyde solution, rinsed twice in PBS, and stained in 0.4% SRB solution for 30 min at room temperature. Cells were then rinsed several times with 1% acetic acid solution and air-dried. SRB was then extracted in 10 mM trizma base solution and the absorbance measured in an automated spectrophotometric plate reader at 490 nm. Cell survival was expressed as percentage of control cell growth. The final effect of the sample being tested was estimated by applying the NCI algorithm (Boyd M R and Paull K D. Drug Dev. Res. 1995, 34, 91-104).
(§7) Using the mean±SD of triplicate cultures, a dose-response curve was automatically generated using nonlinear regression analysis. Three reference parameters were calculated (NCI algorithm) by automatic interpolation: GI50=concentration that produces 50% growth inhibition; TGI=total growth inhibition (cytostatic effect) and LC50=concentration that produces 50% net cell killing (cytotoxic effect).
(Sulforhodamine B stains cellular protein and so reports cell mass.)

Another assay has as its system A549. In words: Cytotoxicity assay, SRB colorimetric assay. It is filed as cell-based. The following applies: Homo sapiens; for GI50: concentration that produces 50% growth inhibition; for LC50 (50% net cell killing): read-out: LC50; for IC (TGI): total growth inhibition (cytostatic effect).
Excerpt: as §1, §2, §3, §4, §5, §6, §7

For a further assay, the system named is HT29. In words: Cytotoxicity assay, SRB colorimetric assay. As to conditions: Homo sapiens; for GI50: concentration that produces 50% growth inhibition; for IC (TGI): total growth inhibition (cytostatic effect). It is filed as cell-based.
Excerpt: as §1, §2, §3, §4, §5, §6, §7

The test system of assay [1] is L929 mouse fibroblast cell culture. As to conditions: toxicity toward L929 mouse fibroblast cell culture; cited from earlier work.
The test system of the next assay is Saccharomyces cerevisiae. As to conditions: fungus Saccharomyces cerevisiae; cited from earlier work.
The mark [2] stands for this setting: MDA-MB-231, 48 hours exposure, concentration that produces 50% net cell killing (cytotoxic effect), read-out: LC50 (the source's name).
Where [3] appears, read: A549, 48 hours exposure, concentration that produces 50% net cell killing (cytotoxic effect).
Setting [4] is: HT-29, HT29, 48 hours exposure, concentration that produces 50% net cell killing (cytotoxic effect), read-out: LC50 (the source's name).
Where [5] appears, read: MDA-MB-231, 48 h, read-out: LC50.

For the compound `C=C/C=C\[C@H](C)[C@H](OC(N)=O)[C@@H](C)[C@H](O)[C@@H](C)C/C(C)=C\[C@H](C)[C@@H](O)[C@@H](C)/C=C\[C@@H](O)C[C@@H]1OC(=O)[C@H](C)[C@@H](O)[C@H]1C` (single isomer, unassigned) [(+)-discodermolide], in the assay on breast cancer carcinoma, the IC50 was 0.0024 µM.

In the case of `COc1cc(/C=C(C)/C=C\C=C/C(=O)N[C@H](C(=O)N/C=C\C[C@H](C/C=C(\C)Cl)O[Si](C)(C)C(C)(C)C)C(C)(C)C)ccc1O[Si](C)(C)C(C)(C)C` [Compound 30], the GI50 in the assay with MDA-MB-231 (MDA-MB-231, 48 hours exposure) was 0.764 µM; with A549 (A549, 48 hours exposure), 0.671 µM; in the assay with HT29 (HT-29, HT29, 48 hours exposure) it was 0.777 µM. In addition, the CC50 was determined as 1.26 µM in the assay on MDA-MB-231 (setting [2]) and 0.869 µM in the assay with HT29 (setting [4]). The IC (TGI) with MDA-MB-231 (MDA-MB-231, 48 hours exposure) came to 0.974 µM; in the assay with A549 (A549, 48 hours exposure), 0.764 µM; in the assay with HT29 (HT-29, HT29, 48 hours exposure), 0.816 µM. Also, the LC50 (50% net cell killing) in the assay on A549 (setting [3]) turned out to be 0.908 µM.

As for `C/C(Cl)=C\C[C@@H](C/C=C\NC(=O)[C@@H](NC(=O)\C=C/C=C\C(C)=C\Cc1ccccc1)C(C)(C)C)O[Si](C)(C)C(C)(C)C` [Compound 32], the GI50 in the assay on MDA-MB-231 (MDA-MB-231, 48 hours exposure) amounted to 0.833 µM; with A549 (A549, 48 hours exposure), 0.49 µM; in the assay with HT29 (HT-29, HT29, 48 hours exposure), 0.49 µM. Moreover, the figures for the CC50 in the assay on MDA-MB-231 (setting [2]) and with HT29 (setting [4]) were 1.5 µM and 0.849 µM, respectively. Further, the IC (TGI) in the assay on MDA-MB-231 (MDA-MB-231, 48 hours exposure) came out at 1.11 µM; with A549 (A549, 48 hours exposure) it was 0.686 µM; with HT29 (HT-29, HT29, 48 hours exposure) it was 0.621 µM. Also, the LC50 (50% net cell killing) in the assay with A549 (setting [3]) is 1.06 µM.

As for `C/C(Cl)=C\C[C@H](O)C/C=C\NC(=O)[C@@H](NC(=O)\C=C/C=C\C(C)=C\Cc1ccccc1)C(C)(C)C` [Compound 33], the CC50 in the assay on MDA-MB-231 (setting [5]) stood at 8.01 µM; in the assay on HT29 (HT-29, 48 h, read-out: LC50) it was 3.81 µM. In addition, the GI50 was 3.01 µM in the assay on MDA-MB-231 (MDA-MB-231, 48 hours exposure); 1.58 µM with A549 (A549, 48 hours exposure); 1.1 µM in the assay with HT29 (HT-29, HT29, 48 hours exposure). Besides, the IC (TGI) came out at 4.81 µM in the assay on MDA-MB-231 (MDA-MB-231, 48 hours exposure); 3.41 µM with A549 (A549, 48 hours exposure); 1.82 µM with HT29 (HT-29, HT29, 48 hours exposure). Besides, the LC50 (50% net cell killing) in the assay on A549 (A549, 48 h) came out at 7.41 µM.

With `C/C(Cl)=C\C[C@@H](C/C=C\NC(=O)[C@@H](NC(=O)\C=C/C=C\C(C)=C\Cc1ccccc1)C(C)(C)C)OC(N)=O` [Compound 34], the CC50 was above 18.4 µM in the assay with MDA-MB-231 (setting [5]) and 0.904 µM with HT29 (HT-29, 48 h, read-out: LC50). Further, the GI50 with MDA-MB-231 (MDA-MB-231, 48 hours exposure) worked out at 1.03 µM; with A549 (A549, 48 hours exposure) it was 0.701 µM; with HT29 (HT-29, HT29, 48 hours exposure), 0.443 µM. Also, the IC (TGI) was found to be 4.43 µM with MDA-MB-231 (MDA-MB-231, 48 hours exposure); 2.77 µM with A549 (A549, 48 hours exposure); 0.572 µM in the assay with HT29 (HT-29, HT29, 48 hours exposure). For the same compound, in the assay with A549 (A549, 48 h), the LC50 (50% net cell killing) was above 18.4 µM.

With `C=CCCOC(=O)[C@@H](NC(=O)\C=C/C=C\C(C)=C\c1ccc(O)c(OC)c1)C(C)(C)C` [Compound 36], the GI50 with MDA-MB-231 (MDA-MB-231, 48 hours exposure) turned out to be 1.15 µM; in the assay on A549 (A549, 48 hours exposure) it was 3.27 µM; in the assay on HT29 (HT-29, HT29, 48 hours exposure) it was 1.96 µM. The CC50 with MDA-MB-231 (setting [2]) was 19.2 µM; with HT29 (setting [4]) it was above 23.4 µM. The IC (TGI) in the assay with MDA-MB-231 (MDA-MB-231, 48 hours exposure) was 2.57 µM; with A549 (A549, 48 hours exposure) it was above 23.4 µM; in the assay on HT29 (HT-29, HT29, 48 hours exposure), 7.95 µM. Further, the LC50 (50% net cell killing) in the assay with A549 (setting [3]) was above 23.4 µM.

Turning to `C/C(Cl)=C\C[C@@H](C/C=C\NC(=O)[C@@H](NC(=O)\C=C/C=C\C(C)=C\[C@H](C)c1ccccc1)C(C)(C)C)O[Si](C)(C)C(C)(C)C` [Compound 37], the concentration for 50% growth inhibition (GI50) in the assay on MDA-MB-231 (MDA-MB-231, 48 hours exposure) was 5.26 µM; in the assay on A549 (A549, 48 hours exposure), 2.87 µM; in the assay on HT29 (HT-29, HT29, 48 hours exposure), 3.67 µM. Also, the CC50 in the assay with MDA-MB-231 (setting [2]) was found to be 9.4 µM; in the assay with HT29 (setting [4]) it was 5.9 µM. Moreover, the IC (TGI) with MDA-MB-231 (MDA-MB-231, 48 hours exposure) was determined as 7.01 µM; in the assay with A549 (A549, 48 hours exposure) it was 5.9 µM; in the assay with HT29 (HT-29, HT29, 48 hours exposure), 4.46 µM. The LC50 (50% net cell killing) in the assay on A549 (setting [3]) was 10.8 µM.

Regarding `C/C(Cl)=C\C[C@H](O)C/C=C\NC(=O)[C@@H](NC(=O)\C=C/C=C\C(C)=C\[C@H](C)c1ccccc1)C(C)(C)C` [Compound 38], the CC50 in the assay with MDA-MB-231 (setting [5]) was above 19.5 µM; in the assay with HT29 (HT-29, 48 h, read-out: LC50), 4.68 µM. The concentration for 50% growth inhibition (GI50) turned out to be 2.14 µM in the assay with MDA-MB-231 (MDA-MB-231, 48 hours exposure); 1.81 µM in the assay with A549 (A549, 48 hours exposure); 1.09 µM in the assay on HT29 (HT-29, HT29, 48 hours exposure). Also, the IC (TGI) came out at 4.48 µM in the assay on MDA-MB-231 (MDA-MB-231, 48 hours exposure); 4.87 µM with A549 (A549, 48 hours exposure); 1.52 µM in the assay on HT29 (HT-29, HT29, 48 hours exposure). In the assay on A549 (A549, 48 h), the LC50 (50% net cell killing) is above 19.5 µM.

Consider `C/C(Cl)=C\C[C@@H](C/C=C\NC(=O)[C@@H](NC(=O)\C=C/C=C\C(C)=C\[C@H](C)c1ccccc1)C(C)(C)C)OC(N)=O` [Compound 39], for which the CC50 with MDA-MB-231 (setting [5]) was above 18 µM; in the assay with HT29 (HT-29, 48 h, read-out: LC50), 0.36 µM. In addition, the concentration for 50% growth inhibition (GI50) with MDA-MB-231 (MDA-MB-231, 48 hours exposure) was 0.0917 µM; with A549 (A549, 48 hours exposure), 0.0557 µM; with HT29 (HT-29, HT29, 48 hours exposure), 0.036 µM. Also, the IC (TGI) was 0.27 µM in the assay with MDA-MB-231 (MDA-MB-231, 48 hours exposure); above 18 µM in the assay on A549 (A549, 48 hours exposure); 0.0593 µM in the assay with HT29 (HT-29, HT29, 48 hours exposure). Also, in the assay with A549 (A549, 48 h), the LC50 (50% net cell killing) was above 18 µM.

Consider `COC(=O)CNC(=O)CCC/C=C\NC(=O)/C=C(C)/C=C/[C@H](C)[C@H](OC)[C@H](C)[C@H](/C=C/c1ccccc1)OC` [crocacin D], for which the IC50 in assay [1] is 0.06 µg/mL (≈ 0.111 µM). In addition, in the assay on Saccharomyces cerevisiae, the MIC is 0.0014 µg/mL (≈ 0.00259 µM).

For `CC(=O)O[C@H]1C(=O)[C@@]2(C)[C@H]([C@H](OC(=O)c3ccccc3)[C@]3(O)C[C@H](OC(=O)[C@H](O)[C@@H](NC(=O)c4ccccc4)c4ccccc4)C(C)=C1C3(C)C)[C@]1(OC(C)=O)CO[C@@H]1C[C@@H]2O` [paclitaxel], the IC50 with breast cancer carcinoma was 0.0021 µM.

One may read the IC50 as the concentration that gives 50% inhibition. In general, GI50 refers to the concentration at which growth is held to half of that of the control. The low end stands for greater sensitivity of the cells, the high end for lower sensitivity of the cells. For orientation: MIC means the smallest concentration in the dilution series that meets the test's criterion for growth inhibition.
